Experimental findings from US20210355154A1, “Halogenated Cholesterol Analogues and Methods of Making and Using Same” (THE REGENTS OF THE UNIVERSITY OF MICHIGAN, priority 2018, published 2021) are described below.

This series deals with ApoE mouse. Briefly: PET imaging of [^18F]NP-59 in a control BL6 mouse and an ApoE mouse. It counts as in vivo. The protocol: [^18F]NP-59 was injected into a control BL6 mouse and an ApoE mouse of similar weight. Equivalent activities were injected into each mouse, and PET images taken approximately 60 minutes after injection are shown in FIG. 1. The images are PET maximal intensity projection images in the oblique coronal plane to obtain relevant anatomic structures. In the upper right-hand corner of each image are axial images through the carotid artery.

`CC(C)CCC[C@@H](C)[C@H]1CCC2C3C[C@@H](C[18F])C4=C(CC[C@H](O)C4)C3CC[C@@]21C` (stereo partly drawn) [[^18F]NP-59]: under “ApoE mouse (atherosclerotic disease) vs control BL6 mouse, equivalent activities injected, PET approximately 60 minutes after injection”, the “differential uptake between the mice (PET)” value was “higher uptake in the ApoE mouse”. Besides, the “background uptake (PET)” value (ApoE mouse vs BL6 mouse of similar weight, identical amounts of tracer injected) is listed as “higher background uptake”. Further, the “organs showing uptake of the compound (PET images)” value (BL6 and ApoE mice, PET approximately 60 minutes after injection) is “uptake of the compound in the liver, adrenal glands, and liver”.
